# According to PMC5486949 (SLAS discovery, 2017):
# What was measured:
# Type in all cases: cell-based, human
# [1] = tested on: PGC-1α/ERRα; experiment: PGC/ERR luciferase reporter gene assay, antagonist mode; settings: Homo sapiens
# [2] = tested on: PGC/ERR cell line (HEK293T); experiment: Cell viability assay multiplexed with PGC/ERR antagonist mode assay; settings: Homo sapiens, HEK-293T, read-out: PGC-1α/ERRα (Viability) IC50
# [3] = tested on: ERR cell line (HEK293T); experiment: Cell viability assay multiplexed with ERR antagonist mode assay; settings: Homo sapiens, HEK-293T, read-out: ERRα (Viability) IC50
structure (smiles),measurement,setting,value
C=C(C)[C@H]1Cc2c(ccc3c2O[C@@H]2COc4cc(OC)c(OC)cc4[C@@H]2C3=O)O1 [Rotenone],AC50,[1]; read-out: AC50 PGC/ERR ↓,0.0741 µM
same,IC50,[1]; read-out: PGC-1α/ERRα (Antagonist) IC50,0.04 µM
same,IC50,[2],6.68 µM
same,IC50,[3],1.33 µM
